{"source": "patent US20180036330A1", "about": "“NUCLEOTIDE PHOSPHORAMIDATE FORMULATION” (priority 2015, published 2018)", "key": {"Huh-Luc cell line": {"test_system": "Huh-Luc cell line", "test": "Cell toxicity in the Huh-Luc cell line", "assay_type": "cell-based"}, "[1]": {"test": "Solubility of Compound 1 in ethanol", "assay_type": "physicochemical", "conditions": "for solubility: 99% ethanol, organic solvent or mixture, heated to 50-60° C., transparent syrup, read-out: solubility in ethanol: final concentration fully dissolved", "experimental": "100.43 mg of Compound 1 was weighed into a glass vial. 37 μl of 99% ethanol was added so that final concentration was 2700 mg/ml. The formulation was heated to 50-60° C. during gentle agitation until the drug substance was fully dissolved. A transparent syrup was obtained and the solution remained transparent after cooling and storage at room temperature for more than 48 hours with no visible crystals.\n200.26 mg of Compound 1 was weighed into a glass vial. 67 μl of 99% ethanol was added so that final concentration was 3000 mg/ml. The formulation was heated to 50-60° C. during gentle agitation until the drug substance was fully dissolved. A transparent syrup was obtained."}, "[2]": {"test_system": "HCV replicon (NS3-NS5B regions of HCV type 1 b) in Huh-7 luc/neo cells", "test": "HCV replicon assay (Huh-Luc, luciferase)", "assay_type": "cell-based", "conditions": "Hepatitis C virus, Huh-7, 72 h, three days incubation, luciferase activity, n>10", "source_text": "The compositions of the invention may be examined for activity in the inhibition of HCV RNA replication in a cellular assay aimed at identifying compounds that inhibit a HCV functional cellular replicating cell line, also known as HCV replicons. A suitable cellular assay is based on a bicistronic expression construct, as described by Lohmann et al. (1999), Science vol. 285 pp. 110-113 with modifications described by Krieger et al. (2001), Journal of Virology 75: 4614-4624, in a multi-target screening strategy.\nThe assay utilizes the stably transfected cell line Huh-7 luc/neo (hereafter referred to as Huh-Luc). […]\nThe replicon cells are plated in 384 well plates in the presence of the test and control compounds which are added in various concentrations. Following an incubation of three days, HCV replication is measured by assaying luciferase activity (using standard luciferase assay substrates and reagents and a Perkin Elmer ViewLux™ ultraHTS microplate imager). […] The inhibitory activity of a compound on luciferase activity is monitored on the Huh-Luc cells, enabling a dose-response curve for each test compound. […]"}, "[3]": {"test": "Basket dissolution test USP method 711 of Compound 1 in hard gelatin capsule (Example 3)", "assay_type": "physicochemical", "conditions": "for Mean % Compound 1 released: n = 2", "experimental": "Dissolution test. 350 mg of Compound 1 was filled into a hard gelatin capsule. A basket dissolution test was performed according to USP method 711, at 100 rpm at 37° C., 900 g media, 5 ml sampling after 20, 45, 90 minutes. Samples were analysed by RP-UPLC. […] The lump was very sticky when wet but dried to a hard lump in air."}, "[4]": {"conditions": "solvent not given, context ethanol, cited from earlier work"}}, "note": "Like-named read-outs stand apart in the source and are kept apart here."}
{"smiles": "CC(C)OC(=O)[C@H](C)N[P@](=O)(OC[C@H]1O[C@@H](n2ccc(=O)[nH]c2=O)[C@@](F)(Cl)[C@@H]1O)Oc1ccccc1", "note": "[Compound 1, (S)-Isopropyl 2-(((S)-(((2R,3R,4S,5R)-4-chloro-5-(2,4-dioxo-3,4-dihydropyrimidin-1(2H)-yl)-4-fluoro-3-hydroxytetrahydrofuran-2-yl)methoxy)(phenoxy)phosphoryl)amino)propanoate]", "values": [{"measurement": "cell toxicity", "setting": "Huh-Luc cell line", "result": "> 50", "unit": "µM"}, {"measurement": "time solution remained transparent with no visible crystals", "setting": "[1]; 2700 mg/ml in 99% ethanol, after cooling, storage at room temperature", "result": "more than 48 hours"}, {"measurement": "appearance after cooling and storage at room temperature", "setting": "[1]; 3000 mg/ml in 99% ethanol", "result": "solidified to a slightly opaque semisolid with no visible crystals"}, {"measurement": "solubility", "setting": "[1]; 100.43 mg in 37 μl 99% ethanol", "result": 2700, "unit": "mg/mL"}, {"measurement": "solubility", "setting": "[1]; 200.26 mg in 67 μl 99% ethanol", "result": 3000, "unit": "mg/mL"}, {"measurement": "EC50", "setting": "[2]", "result": 55, "unit": "nM"}, {"measurement": "Mean % Compound 1 released", "setting": "[3]; 0.1M HCl, 20 min, 350 mg in hard gelatin capsule, 37° C., 100 rpm", "result": 2, "unit": "%"}, {"measurement": "Mean % Compound 1 released", "setting": "[3]; 0.1M HCl, 45 min, 350 mg in hard gelatin capsule", "result": 3, "unit": "%"}, {"measurement": "Mean % Compound 1 released", "setting": "[3]; 0.1M HCl, 90 min, 350 mg in hard gelatin capsule", "result": 5, "unit": "%"}, {"measurement": "observation of capsule during dissolution test", "setting": "[3]; 350 mg in hard gelatin capsule, 90 min", "result": "water insoluble lump that did not dissolve or change much during 90 min"}, {"measurement": "Mean % Compound 1 released", "setting": "[3]; FaSSIF, 20 min, 350 mg in hard gelatin capsule", "result": 2, "unit": "%"}, {"measurement": "Mean % Compound 1 released", "setting": "[3]; FaSSIF, 45 min, 350 mg in hard gelatin capsule", "result": 5, "unit": "%"}, {"measurement": "Mean % Compound 1 released", "setting": "[3]; FaSSIF, 90 min, 350 mg in hard gelatin capsule", "result": 8, "unit": "%"}, {"measurement": "solubility of the lump in 70% EtOH", "setting": "[3]; lump formed from capsule, 70% EtOH", "result": "surprisingly soluble"}]}
{"smiles": "CC(C)OC(=O)[C@H](C)N[P@](=O)(OC[C@H]1O[C@@H](n2ccc(=O)[nH]c2=O)[C@](C)(F)[C@@H]1O)Oc1ccccc1", "note": "[sofosbuvir]", "values": [{"measurement": "published solubility", "setting": "[4]; Cayman Chemical item no 15402 and Apex BT Catalog no. A3738", "result": 25, "unit": "mg/mL"}, {"measurement": "published solubility", "setting": "[4]; Selleckchem Catalog no S2794", "result": 100, "unit": "mg/mL"}]}
